{"source": "patent US6872729B2", "about": "“Pyrimidinylbenzimidazole and triazinylbenzimidazole derivatives and agricultural/horticultural fungicides” (Kumiai Chemical Industry Co., Ltd., priority 1998, dated 2005)"}
{"system": "Erysiphe graminis", "assay": "Test for preventive effect on wheat powdery mildew", "format": "in vivo", "settings": "wheat (Norin-61-go) seedlings, 500 ppm active ingredient, preventive treatment; diseased area of first leaves 10 days after inoculation with Erysiphe graminis", "protocol": "Test for Preventive Effect on Wheat Powdery Mildew 9 Wheat seeds (variety: Norin-61-go) were sown in each 9 cm×9 cm polyvinyl chloride pot, grown in a greenhouse for 8 days, then treated with 10 ml per pot of aqueous solutions of wettable powders prepared in accordance with Formulation Example 2, at a concentration of 500 ppm in terms of the active ingredients and dried in the air. Then, the seedlings were inoculated with Erysiphe graminis spores by sprinkle over the plant and placed in a greenhouse of from 20 to 25° C. 10 days after the inoculation, the total diseases area of the first leaves in each pot was observed and evaluated on the basis of the standards shown in Table 67. [table]"}
{"smiles": "COc1nc(OC)nc(-n2c(C)nc3cc(C(=O)c4ccccc4)ccc32)n1", "note": "[Compound I-235]", "Biological effectiveness": "A (No diseased area)"}
{"smiles": "COc1nc(OC)nc(-n2c(C)nc3cc(C#N)ccc32)n1", "note": "[Compound I-239]", "Biological effectiveness": "A (No diseased area)"}
{"smiles": "COc1nc(OC)nc(-n2c(C)nc3ccc(C)cc32)n1", "note": "[Compound I-242]", "Biological effectiveness": "A (No diseased area)"}
{"smiles": "COc1nc(OC)nc(-n2c(C)nc3c(C)cc(C)cc32)n1", "note": "[Compound I-250]", "Biological effectiveness": "B (Diseased area of less than 25%)"}
{"smiles": "COc1nc(OC)nc(-n2c(C)nc3cc(C)c(C)cc32)n1", "note": "[Compound I-251]", "Biological effectiveness": "A (No diseased area)"}
{"smiles": "COc1cc(OC)nc(-n2c(Cl)nc3cc(F)ccc32)n1", "note": "[Compound I-255]", "Biological effectiveness": "A (No diseased area)"}
{"smiles": "COc1cc(OC)nc(-n2c(Cl)nc3cc(Cl)ccc32)n1", "note": "[Compound I-256]", "Biological effectiveness": "A (No diseased area)"}
{"smiles": "COc1cc(OC)nc(-n2c(Cl)nc3cc(C(F)(F)F)ccc32)n1", "note": "[Compound I-259]", "Biological effectiveness": "A (No diseased area)"}
{"smiles": "COc1ccc2c(c1)nc(Cl)n2-c1nc(OC)cc(OC)n1", "note": "[Compound I-260]", "Biological effectiveness": "A (No diseased area)"}
{"smiles": "CCOc1ccc2c(c1)nc(Cl)n2-c1nc(OC)cc(OC)n1", "note": "[Compound I-261]", "Biological effectiveness": "B (Diseased area of less than 25%)"}
{"smiles": "COc1cc(OC)nc(-n2c(Cl)nc3cc(OC(F)(F)F)ccc32)n1", "note": "[Compound I-263]", "Biological effectiveness": "A (No diseased area)"}
{"smiles": "COc1cc(OC)nc(-n2c(Cl)nc3ccc(Cl)cc32)n1", "note": "[Compound I-271]", "Biological effectiveness": "A (No diseased area)"}
{"smiles": "COc1cc(OC)nc(-n2c(Cl)nc3ccc(C)cc32)n1", "note": "[Compound I-272]", "Biological effectiveness": "A (No diseased area)"}
{"smiles": "COc1nc(OC)nc(-n2c(Cl)nc3cc(C)ccc32)n1", "note": "[Compound I-279]", "Biological effectiveness": "A (No diseased area)"}
{"smiles": "COc1cc(OC)nc(-n2c(C(F)(F)F)nc3cc(F)ccc32)n1", "note": "[Compound I-295]", "Biological effectiveness": "A (No diseased area)"}
{"smiles": "COc1cc(OC)nc(-n2c(C(F)(F)F)nc3cc(Cl)ccc32)n1", "note": "[Compound I-296]", "Biological effectiveness": "A (No diseased area)"}
{"smiles": "COc1cc(OC)nc(-n2c(C(F)(F)F)nc3cc(C(F)(F)F)ccc32)n1", "note": "[Compound I-299]", "Biological effectiveness": "A (No diseased area)"}
{"smiles": "COc1ccc2c(c1)nc(C(F)(F)F)n2-c1nc(OC)cc(OC)n1", "note": "[Compound I-300]", "Biological effectiveness": "A (No diseased area)"}
{"smiles": "CCOc1ccc2c(c1)nc(C(F)(F)F)n2-c1nc(OC)cc(OC)n1", "note": "[Compound I-301]", "Biological effectiveness": "A (No diseased area)"}
{"smiles": "COc1cc(OC)nc(-n2c(C(F)(F)F)nc3ccc(C)cc32)n1", "note": "[Compound I-307]", "Biological effectiveness": "A (No diseased area)"}
{"smiles": "COc1nc(OC)nc(-n2c(C(F)(F)F)nc3cc(F)ccc32)n1", "note": "[Compound I-309]", "Biological effectiveness": "A (No diseased area)"}
{"smiles": "COc1nc(OC)nc(-n2c(C(F)(F)F)nc3cc(Cl)ccc32)n1", "note": "[Compound I-310]", "Biological effectiveness": "A (No diseased area)"}
{"smiles": "COc1nc(OC)nc(-n2c(C(F)(F)F)nc3cc(Br)ccc32)n1", "note": "[Compound I-311]", "Biological effectiveness": "A (No diseased area)"}
{"smiles": "CCc1ccc2c(c1)nc(C(F)(F)F)n2-c1nc(OC)nc(OC)n1", "note": "[Compound I-313]", "Biological effectiveness": "A (No diseased area)"}
{"smiles": "CCCc1ccc2c(c1)nc(C(F)(F)F)n2-c1nc(OC)nc(OC)n1", "note": "[Compound I-314]", "Biological effectiveness": "A (No diseased area)"}
{"smiles": "COc1nc(OC)nc(-n2c(C(F)(F)F)nc3cc(C(C)C)ccc32)n1", "note": "[Compound I-315]", "Biological effectiveness": "B (Diseased area of less than 25%)"}
{"smiles": "COc1nc(OC)nc(-n2c(C(F)(F)F)nc3cc(C(C)(C)C)ccc32)n1", "note": "[Compound I-316]", "Biological effectiveness": "B (Diseased area of less than 25%)"}
{"smiles": "COc1ccc2c(c1)nc(C(F)(F)F)n2-c1nc(OC)nc(OC)n1", "note": "[Compound I-318]", "Biological effectiveness": "A (No diseased area)"}
{"smiles": "COc1nc(OC)nc(-n2c(C(F)(F)F)nc3cc(OC(F)(F)F)ccc32)n1", "note": "[Compound I-321]", "Biological effectiveness": "A (No diseased area)"}
{"smiles": "COc1nc(OC)nc(-n2c(C(F)(F)F)nc3cc(I)ccc32)n1", "note": "[Compound I-327]", "Biological effectiveness": "A (No diseased area)"}
{"smiles": "CCc1nc2cc(F)ccc2n1-c1nc(OC)cc(OC)n1", "note": "[Compound I-332]", "Biological effectiveness": "B (Diseased area of less than 25%)"}
{"smiles": "CCc1nc2cc(Cl)ccc2n1-c1nc(OC)cc(OC)n1", "note": "[Compound I-333]", "Biological effectiveness": "A (No diseased area)"}
{"smiles": "CCc1nc2cc(C)ccc2n1-c1nc(OC)cc(OC)n1", "note": "[Compound I-334]", "Biological effectiveness": "A (No diseased area)"}
{"smiles": "CCc1nc2cc(C(F)(F)F)ccc2n1-c1nc(OC)cc(OC)n1", "note": "[Compound I-335]", "Biological effectiveness": "A (No diseased area)"}
{"smiles": "CCc1nc2cc(OC)ccc2n1-c1nc(OC)cc(OC)n1", "note": "[Compound I-336]", "Biological effectiveness": "A (No diseased area)"}
{"smiles": "CCc1nc2cc(Cl)ccc2n1-c1nc(OC)nc(OC)n1", "note": "[Compound I-346]", "Biological effectiveness": "A (No diseased area)"}
{"smiles": "CCCc1nc2cc(Cl)ccc2n1-c1nc(OC)nc(OC)n1", "note": "[Compound I-358]", "Biological effectiveness": "A (No diseased area)"}
{"smiles": "COc1nc(OC)nc(-n2c(C(C)C)nc3cc(Cl)ccc32)n1", "note": "[Compound I-359]", "Biological effectiveness": "A (No diseased area)"}
{"smiles": "COc1nc(OC)nc(-n2c(C3CC3)nc3cc(Cl)ccc32)n1", "note": "[Compound I-360]", "Biological effectiveness": "B (Diseased area of less than 25%)"}
{"smiles": "COc1ccc2c(c1)nc(N)n2-c1nc(OC)cc(OC)n1", "note": "[Compound I-364]", "Biological effectiveness": "A (No diseased area)"}
{"smiles": "COc1cc(OC)nc(-n2c(N)nc3ccc(C)cc32)n1", "note": "[Compound I-366]", "Biological effectiveness": "A (No diseased area)"}
{"smiles": "COc1nc(OC)nc(-n2c(N)nc3cc(C)ccc32)n1", "note": "[Compound I-369]", "Biological effectiveness": "B (Diseased area of less than 25%)"}
{"smiles": "CNc1nc2cc(Cl)ccc2n1-c1nc(OC)nc(OC)n1", "note": "[Compound I-375]", "Biological effectiveness": "A (No diseased area)"}
{"smiles": "COc1nc(OC)nc(-n2c(N(C)C)nc3cc(Cl)ccc32)n1", "note": "[Compound I-376]", "Biological effectiveness": "B (Diseased area of less than 25%)"}
{"smiles": "COCc1nc2cc(Cl)ccc2n1-c1nc(OC)nc(OC)n1", "note": "[Compound I-377]", "Biological effectiveness": "A (No diseased area)"}
{"smiles": "COc1nc(OC)nc(-n2c(-c3ccccc3)nc3cc(Cl)ccc32)n1", "note": "[Compound I-378]", "Biological effectiveness": "A (No diseased area)"}
{"smiles": "COc1nc(OC)nc(-n2c(Cc3ccccc3)nc3cc(Cl)ccc32)n1", "note": "[Compound I-379]", "Biological effectiveness": "A (No diseased area)"}
{"smiles": "COc1cc(OC)nc(-n2c(C#N)nc3cc(Cl)ccc32)n1", "note": "[Compound I-380]", "Biological effectiveness": "A (No diseased area)"}
{"smiles": "COc1cc(OC)nc(-n2c(C#N)nc3cc(C)ccc32)n1", "note": "[Compound I-381]", "Biological effectiveness": "A (No diseased area)"}
{"smiles": "COc1cc(OC)nc(-n2c(SC)nc3cc(Cl)ccc32)n1", "note": "[Compound I-388]", "Biological effectiveness": "A (No diseased area)"}
{"smiles": "COc1cc(OC)nc(-n2c(SC)nc3cc(C)ccc32)n1", "note": "[Compound I-389]", "Biological effectiveness": "B (Diseased area of less than 25%)"}
{"smiles": "COc1nc(OC)nc(-n2c(SC)nc3cc(Cl)ccc32)n1", "note": "[Compound I-394]", "Biological effectiveness": "A (No diseased area)"}
{"smiles": "COc1cc(OC)nc(-n2c(C(Cl)(Cl)Cl)nc3cc(Cl)ccc32)n1", "note": "[Compound I-400]", "Biological effectiveness": "A (No diseased area)"}
{"smiles": "COc1cc(OC)nc(-n2c(C(Cl)(Cl)Cl)nc3ccc(C)cc32)n1", "note": "[Compound I-404]", "Biological effectiveness": "B (Diseased area of less than 25%)"}
{"smiles": "COc1nc(OC)nc(-n2c(C(Cl)(Cl)Cl)nc3cc(Cl)ccc32)n1", "note": "[Compound I-405]", "Biological effectiveness": "A (No diseased area)"}
{"smiles": "COc1nc(OC)nc(-n2c(C(Cl)(Cl)Cl)nc3cc(C)ccc32)n1", "note": "[Compound I-406]", "Biological effectiveness": "A (No diseased area)"}
{"smiles": "COc1cc(OC)nc(-n2c(S(C)(=O)=O)nc3cc(Cl)ccc32)n1", "note": "[Compound I-423]", "Biological effectiveness": "A (No diseased area)"}
{"smiles": "COc1cc(OC)nc(-n2c(S(C)(=O)=O)nc3cc(C)ccc32)n1", "note": "[Compound I-424]", "Biological effectiveness": "A (No diseased area)"}
{"smiles": "CCOc1nc(OC)nc(-n2c(C)nc3cc(Cl)ccc32)n1", "note": "[Compound I-438]", "Biological effectiveness": "A (No diseased area)"}
{"smiles": "CCOc1cc(OCC)nc(-n2cnc3ccccc32)n1", "note": "[Compound I-457]", "Biological effectiveness": "B (Diseased area of less than 25%)"}
{"smiles": "CCOc1cc(OCC)nc(-n2c(Cl)nc3ccccc32)n1", "note": "[Compound I-458]", "Biological effectiveness": "A (No diseased area)"}
{"smiles": "CCOc1cc(OCC)nc(-n2c(C)nc3ccccc32)n1", "note": "[Compound I-461]", "Biological effectiveness": "A (No diseased area)"}
{"smiles": "CCOc1cc(OCC)nc(-n2c(CC)nc3ccccc32)n1", "note": "[Compound I-462]", "Biological effectiveness": "B (Diseased area of less than 25%)"}
{"smiles": "CCOc1cc(OCC)nc(-n2c(C(F)(F)F)nc3ccccc32)n1", "note": "[Compound I-465]", "Biological effectiveness": "B (Diseased area of less than 25%)"}
{"smiles": "CCOc1cc(OCC)nc(-n2cnc3cc(F)ccc32)n1", "note": "[Compound I-479]", "Biological effectiveness": "A (No diseased area)"}
{"smiles": "CCOc1cc(OCC)nc(-n2cnc3cc(Cl)ccc32)n1", "note": "[Compound I-480]", "Biological effectiveness": "A (No diseased area)"}
{"smiles": "CCOc1cc(OCC)nc(-n2cnc3cc(C)ccc32)n1", "note": "[Compound I-482]", "Biological effectiveness": "A (No diseased area)"}
{"smiles": "CCOc1cc(OCC)nc(-n2cnc3cc(C(F)(F)F)ccc32)n1", "note": "[Compound I-483]", "Biological effectiveness": "A (No diseased area)"}
{"smiles": "CCOc1cc(OCC)nc(-n2cnc3ccc(Cl)cc32)n1", "note": "[Compound I-486]", "Biological effectiveness": "A (No diseased area)"}
{"smiles": "CCOc1nc(OCC)nc(-n2cnc3cc(Br)ccc32)n1", "note": "[Compound I-490]", "Biological effectiveness": "A (No diseased area)"}
{"smiles": "CCOc1cc(OCC)nc(-n2c(C)nc3cc(F)ccc32)n1", "note": "[Compound I-498]", "Biological effectiveness": "A (No diseased area)"}
